Several values for one entry are separate records, joined by “and”; a condition that tells them apart may be missing. Identical values can stand only once.
Columns and labels:
[1] = tested on: nicotinamidase from M. tuberculosis; settings: cited from earlier work
Pnc1 [2] = target: T1, Pnc1 (Saccharomyces cerevisiae, UniProt P53184); type: biochemical, S. cerevisiae
Pnc1 [3] = target: T1, Pnc1; assay: 13C kinetic isotope effect with substrates; type: biochemical, S. cerevisiae
[4] = tested on: nicotinamidase from S. cerevisiae; settings: cited from earlier work
Pnc1 [5] = target: T1, Pnc1; assay: 15N kinetic isotope effect with substrates; type: biochemical, S. cerevisiae
[6] = Literature hydrolysis in basic solution; type: physicochemical; settings: 25 °C in 0.1 N NaOH
[7] = 25 °C in 0.1 N NaOH; cited from earlier work
[8] = target: nicotinamidase from M. lysodeikticus; settings: cited from earlier work
S. cerevisiae Pnc1 = settings: cited from earlier work
Pnc1 [9] = target: T1, Pnc1; assay: Pnc1 competitive inhibition; type: biochemical, S. cerevisiae
[10] = target: nicotinamidase from Mycobacterium tuberculosis; settings: cited from earlier work
Pnc1 [11] = target: T1, Pnc1; assay: Dependence of kcat on pH; type: biochemical, S. cerevisiae; settings: pH 4.5 to 10.5
yeast nicotinamidases = settings: previous reports; cited from earlier work
[12] = tested on: nicotinamidase from M. lysodeikticus; settings: cited from earlier work; remark: listed apart in the source
Pnc1 WT or mutant [13] = assay: Steady-state kinetic parameters of Pnc1 mutants, enzyme-coupled assay; type: biochemical, S. cerevisiae; settings: substrate nicotinamide; for kcat: pH 7.5
Pnc1 WT or mutant [14] = target: Pnc1 WT or mutant (Saccharomyces cerevisiae, UniProt P53184, C167A); assay: as above; type: biochemical, S. cerevisiae; settings: substrate nicotinamide
Pnc1 WT or mutant [15] = assay: 15N kinetic isotope effect of Pnc1 mutants; type: biochemical, S. cerevisiae; settings: substrate nicotinamide, pH 7.5
Pnc1 WT or mutant [16] = assay: 13C kinetic isotope effect of Pnc1 mutants; type: biochemical, S. cerevisiae; settings: substrate nicotinamide, pH 7.5
Pnc1 WT or mutant [17] = target: Pnc1 WT or mutant (Saccharomyces cerevisiae, UniProt P53184, K122R); assay: 13C kinetic isotope effect of Pnc1 mutants; type: biochemical, S. cerevisiae; settings: substrate nicotinamide

T1 sequence (P53184 whole entry): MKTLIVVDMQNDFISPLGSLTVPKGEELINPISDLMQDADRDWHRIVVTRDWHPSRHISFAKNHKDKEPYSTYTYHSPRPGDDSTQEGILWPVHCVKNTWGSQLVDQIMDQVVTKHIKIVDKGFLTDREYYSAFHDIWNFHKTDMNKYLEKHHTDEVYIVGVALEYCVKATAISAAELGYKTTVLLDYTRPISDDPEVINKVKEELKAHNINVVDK

NC(=O)c1cnccn1 [pyrazinamide]
Km [1]: 300 µM | fold decreased kcat/Km compared to nicotinamide (Pnc1 [2]): 4.5 fold | fold faster kcat compared to nicotinamide (Pnc1 [2]): 3.7 fold | fold higher Km compared to nicotinamide (Pnc1 [2]): 16 fold | 13C KIE (Pnc1 [3]; as percent): 2.0% | 13C KIE (Pnc1 [3]; on V/K, pH 7.5): 1.0196 ± 0.0023 | Km [4]: 200 µM | 15N KIE (Pnc1 [5]; as percent): 2.3% | 15N KIE (Pnc1 [5]; on V/K, pH 7.5): 1.0231 ± 0.0007

NC(=O)c1ccccc1 [benzamide]
fold slower hydrolysis rate compared to nicotinamide [6]: 7 fold | fold decreased kcat/Km compared to nicotinamide (Pnc1 [2]): 200 fold | fold lower kcat compared to nicotinamide (Pnc1 [2]): 78 fold | pseudo-first-order rate of hydrolysis in basic solutions [7]: 0.00408 h⁻¹

O=Cc1cccnc1 [nicotinaldehyde]
Ki [8]: 18 nM | Ki (S. cerevisiae Pnc1): 1400 nM | Ki (Pnc1 [9]): 940 ± 350 nM | Ki fold below the Km value of nicotinamide (Pnc1 [9]; vs Km 9.6 µM for nicotinamide): 10 fold | Ki [10]: 290 nM

NC(=O)c1cccnc1 [nicotinamide]
critical ionizations in kcat pH profile (Pnc1 [11]): no critical ionizations | variation of kcat between the pH extremes (Pnc1 [11]): 4 fold | kcat (Pnc1 [2]; substrate of Pnc1, pH 7.5): 0.69 s⁻¹ | 13C KIE (Pnc1 [3]; as percent): ~ 1.2% | 13C KIE (Pnc1 [3]; on V/K, pH 7.5): 1.0125 ± 0.0004 | pseudo-first-order rate of hydrolysis in basic solutions [7]: 0.0301 h⁻¹ | 15N KIE (Pnc1 [5]; as percent): ~ 1.2% and 1.2% | 15N KIE (Pnc1 [5]; on V/K, pH 7.5): 1.0122 ± 0.0002 | Km (yeast nicotinamidases): 6 to 10 µM

Cc1cncc(C(N)=O)c1 [5-methylnicotinamide]
fold higher Km compared to nicotinamide (Pnc1 [2]): 6 fold | 13C KIE (Pnc1 [3]; on V/K, pH 7.5): 1.0269 ± 0.0037 | Km [12]: 360 µM | 15N KIE (Pnc1 [5]; on V/K, pH 7.5): 1.0151 ± 0.0009

B1: C167A (protein, UniProt P53184 1-216, looked up, variant C167A)
Nicotinamidase: MKTLIVVDMQNDFISPLGSLTVPKGEELINPISDLMQDADRDWHRIVVTRDWHPSRHISFAKNHKDKEPYSTYTYHSPRPGDDSTQEGILWPVHCVKNTWGSQLVDQIMDQVVTKHIKIVDKGFLTDREYYSAFHDIWNFHKTDMNKYLEKHHTDEVYIVGVALEYAVKATAISAAELGYKTTVLLDYTRPISDDPEVINKVKEELKAHNINVVDK
kcat (Pnc1 WT or mutant [13]): < 0.0005 s⁻¹ | nicotinamidase activity (Pnc1 WT or mutant [14]): lost all detectable nicotinamidase activity

B2: K122R (protein, UniProt P53184 1-216, looked up, variant K122R)
Nicotinamidase: MKTLIVVDMQNDFISPLGSLTVPKGEELINPISDLMQDADRDWHRIVVTRDWHPSRHISFAKNHKDKEPYSTYTYHSPRPGDDSTQEGILWPVHCVKNTWGSQLVDQIMDQVVTKHIKIVDRGFLTDREYYSAFHDIWNFHKTDMNKYLEKHHTDEVYIVGVALEYCVKATAISAAELGYKTTVLLDYTRPISDDPEVINKVKEELKAHNINVVDK
15N KIE (Pnc1 WT or mutant [15]): 1.0127 ± 0.0003 | 13C KIE (Pnc1 WT or mutant [16]): 1.0172 ± 0.0001 | 13C effect higher than wild-type enzyme (Pnc1 WT or mutant [17]): ~ 0.4% | fold lower kcat compared to Pnc1 WT (Pnc1 WT or mutant [13]): 767 fold | kcat (Pnc1 WT or mutant [13]): 0.0009 ± 0.0002 s⁻¹
